Assay results: patent US20260007758A1, “SO[…]-2 RECEPTOR (SST2R) NON-PEPTIDE DRUG CONJUGATES AND USES THEREOF” (Crinetics Pharmaceuticals, Inc., priority 2024, published 2026)
*1 amine or outer side, *2 acyl side, *3 side chain or, on linkers, in order; H or OH if unused. Where a SMILES comes first, the peptide text is derived from it. [ ]: non-standard residue; d: D form. The star is where a group is joined. X3 = Cc1cc(F)cc(-c2cnc(NCCNC(=O)CCOCCOCCOCCOCCC(=O)*)c(-c3nc4ccc(Cl)cc4[nH]3)c2N2CCC(N)CC2)c1; X4 = Cc1cc(F)cc(-c2cnc(NCCNC(=O)CCOCCC(=O)*)c(-c3nc4ccc(Cl)cc4[nH]3)c2N2CCC(N)CC2)c1; Dolaproine = CO[C@@H]([C@@H]1CCCN1)[C@@H](C)C(=O)O; Dil = CC[C@H](C)[C@H](NC)[C@@H](CC(=O)O)OC; PABC = O=C(OCc1ccc(N[*:1])cc1)[*:2]; X2 = C[C@@H](N*)[C@@H](O)c1ccccc1; Cit = NC(=O)NCCC[C@H](N)C(=O)O; NMeV = CN[C@H](C(=O)O)C(C)C; PEG1 = NCCOCCC(=O)O; Ahx = NCCCCCC(=O)O

Key:
Assay type in all cases: cell-based
SST2 = molecular target: T1, SST2 (Homo sapiens, UniProt P30874); assay: PathHunter CHO-K1 SST2 Internalization Assay; details: PathHunter CHO-K1 SST2 cells; 90 min at 37 C; luminescence; read-out: Internalization EC50
T1 construct: host or cells: PathHunter CHO-K1 SST2 cells
Outline: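 Four-parameter nonlinear fits of background-corrected luminescence (duplicate means) gave IC50s. NDCs were serially diluted 1:3 over 11 points from a 10 uM final top concentration and incubated 90 min at 37 C with human SST2 CHO-K1 cells plated 48 h earlier at 2500/well. Beta-Glo read-out developed 60 min at RT.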

[1] = test system: NCI-H524 human small cell lung cancer cells; assay: H524 assay: inhibition of cell proliferation (CellTiter Glo); details: 2 h treatment, washout, additional 70 h incubation
Outline: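 Proliferation was measured by CellTiter Glo 70 h after a washout that followed a 2 h pulse of NDC. Doses were an 11-point, two-fold dilution series from 1 uM. IC50 was fitted with a four-parameter model to luminescence-based % inhibition relative to control cells.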

[2] = molecular target: T2, human somatostatin receptor subtype 2 (Homo sapiens, UniProt P30874); assay: Functional assay for SSTR2 agonists (HTRF cAMP); details: CHO-K1 cells stably expressing human SST2; NKH477-stimulated cAMP; 20 min at 37 C; read-out: hSST2 cAMP Avg EC50
T2 construct: expressed in transfected cells
Outline: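 Agonist activity read as fall in intracellular cAMP: HTRF 665/620 nm ratio regressed to a cAMP standard curve, EC50 fitted. Stable human SSTR2 CHO-K1 cells exposed 20 min at 37 °C to compound, final concentrations typically 0-10,000 nM.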

T1 sequence (P30874 whole entry): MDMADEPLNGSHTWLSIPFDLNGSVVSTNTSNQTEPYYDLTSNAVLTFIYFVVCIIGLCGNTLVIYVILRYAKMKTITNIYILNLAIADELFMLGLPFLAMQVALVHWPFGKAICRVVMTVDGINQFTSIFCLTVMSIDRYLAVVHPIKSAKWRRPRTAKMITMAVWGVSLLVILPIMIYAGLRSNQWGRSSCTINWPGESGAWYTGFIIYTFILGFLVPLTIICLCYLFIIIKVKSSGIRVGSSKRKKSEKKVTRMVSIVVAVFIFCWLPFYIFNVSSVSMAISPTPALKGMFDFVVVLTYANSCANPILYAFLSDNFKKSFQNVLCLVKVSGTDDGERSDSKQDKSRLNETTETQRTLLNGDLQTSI
T2 sequence (P30874 whole entry): as above

Row | Structure (SMILES) | EC50 (SST2) [nM] | EC50 [1] [nM] | EC50 [2] [nM]
1 | CC[C@H](C)[C@@H]([C@@H](CC(=O)N1CCC[C@H]1[C@H](OC)[C@@H](C)C(=O)N[C@H](C)[C@@H](O)c1ccccc1)OC)N(C)C(=O)[C@@H](NC(=O)[C@H](C(C)C)N(C)C(=O)OCc1ccc(NC(=O)[C@H](CCCNC(N)=O)NC(=O)[C@@H](NC(=O)c2cc(NCCOCCOCCOCCC(=O)NCCNc3ncc(-c4cc(C)cc(F)c4)c(N4CCC(N)CC4)c3-c3nc4ccc(Cl)cc4[nH]3)cc(C(=O)NCCN)c2)C(C)C)cc1)C(C)C [Compound 179] | 9.8 | 370 | 0.54
2 | CC[C@H](C)[C@@H]([C@@H](CC(=O)N1CCC[C@H]1[C@H](OC)[C@@H](C)C(=O)N[C@H](C)[C@@H](O)c1ccccc1)OC)N(C)C(=O)[C@@H](NC(=O)[C@H](C(C)C)N(C)C(=O)OCc1ccc(NC(=O)[C@H](CCCNC(N)=O)NC(=O)[C@@H](NC(=O)CCOCCOCCOCCOCCNc2ncc(C(=O)NCCNc3ncc(-c4cc(C)cc(F)c4)c(N4CCC(N)CC4)c3-c3nc4ccc(Cl)cc4[nH]3)cn2)C(C)C)cc1)C(C)C [Compound 180] | 16 | 680 | 0.52
3 | CC[C@H](C)[C@@H]([C@@H](CC(=O)N1CCC[C@H]1[C@H](OC)[C@@H](C)C(=O)N[C@H](C)[C@@H](O)c1ccccc1)OC)N(C)C(=O)[C@@H](NC(=O)[C@H](C(C)C)N(C)C(=O)OCc1ccc(NC(=O)[C@H](CCCNC(N)=O)NC(=O)[C@@H](NC(=O)C[C@@H](N)C(=O)NCCOCCC(=O)NCCNc2ncc(-c3cc(C)cc(F)c3)c(N3CCC(N)CC3)c2-c2nc3ccc(Cl)cc3[nH]2)C(C)C)cc1)C(C)C [Compound 181] | 3.4 | 190 | 0.38
4 | CC[C@H](C)[C@@H]([C@@H](CC(=O)N1CCC[C@H]1[C@H](OC)[C@@H](C)C(=O)N[C@H](C)[C@@H](O)c1ccccc1)OC)N(C)C(=O)[C@@H](NC(=O)[C@H](C(C)C)N(C)C(=O)OCc1ccc(NC(=O)[C@H](CCCNC(N)=O)NC(=O)[C@@H](NC(=O)c2ccc(NC(=O)CCOCCC(=O)NCCNc3ncc(-c4cc(C)cc(F)c4)c(N4CCC(N)CC4)c3-c3nc4ccc(Cl)cc4[nH]3)cc2O[C@@H]2OC(C(=O)O)[C@@H](O)[C@H](O)[C@H]2O)C(C)C)cc1)C(C)C (stereo partly drawn) [Compound 182] | 11 | 2300 | 0.093
5 | CC[C@H](C)[C@@H]([C@@H](CC(=O)N1CCC[C@H]1[C@H](OC)[C@@H](C)C(=O)N[C@H](C)[C@@H](O)c1ccccc1)OC)N(C)C(=O)[C@@H](NC(=O)[C@H](C(C)C)N(C)C(=O)OCc1ccc(NC(=O)[C@H](CCCNC(N)=O)NC(=O)[C@@H](NC(=O)c2ccc(NC(=O)CCOCCOCCOCCOCCC(=O)NCCNc3ncc(-c4cc(C)cc(F)c4)c(N4CCC(N)CC4)c3-c3nc4ccc(Cl)cc4[nH]3)cc2O[C@@H]2OC(C(=O)O)[C@@H](O)[C@H](O)[C@H]2O)C(C)C)cc1)C(C)C (stereo partly drawn) [Compound 183] | 3.1 | 1000 | 0.074
6 | CC[C@H](C)[C@@H]([C@@H](CC(=O)N1CCC[C@H]1[C@H](OC)[C@@H](C)C(=O)N[C@H](C)[C@@H](O)c1ccccc1)OC)N(C)C(=O)[C@@H](NC(=O)[C@H](C(C)C)N(C)C(=O)OCc1ccc(NC(=O)[C@H](CCCNC(N)=O)NC(=O)[C@@H](NC(=O)c2cc(NCCOCCC(=O)NCCNc3ncc(-c4cc(C)cc(F)c4)c(N4CCC(N)CC4)c3-c3nc4ccc(Cl)cc4[nH]3)cc(C(=O)NCCN)c2)C(C)C)cc1)C(C)C [Compound 184] | 1.8 | 240 | 0.063
7 | CC[C@H](C)[C@@H]([C@@H](CC(=O)N1CCC[C@H]1[C@H](OC)[C@@H](C)C(=O)N[C@H](C)[C@@H](O)c1ccccc1)OC)N(C)C(=O)[C@@H](NC(=O)[C@H](C(C)C)N(C)C(=O)OCc1ccc(NC(=O)[C@H](CCCNC(N)=O)NC(=O)[C@@H](NC(=O)c2cc(NCCOCCC(=O)NCCNc3ncc(-c4cc(C)cc(F)c4)c(N4CCC(N)CC4)c3-c3nc4ccc(Cl)cc4[nH]3)cc(C(=O)NCC(=O)O)c2)C(C)C)cc1)C(C)C [Compound 185] | 2.6 | 1100 | 0.19
8 | CC[C@H](C)[C@@H]([C@@H](CC(=O)N1CCC[C@H]1[C@H](OC)[C@@H](C)C(=O)N[C@H](C)[C@@H](O)c1ccccc1)OC)N(C)C(=O)[C@@H](NC(=O)[C@H](C(C)C)N(C)C(=O)OCc1ccc(NC(=O)[C@H](CCCNC(N)=O)NC(=O)[C@@H](NC(=O)c2cc(NCCOCCC(=O)NCCNc3ncc(-c4cc(C)cc(F)c4)c(N4CCC(N)CC4)c3-c3nc4ccc(Cl)cc4[nH]3)cc(C(=O)NCC(N)=O)c2)C(C)C)cc1)C(C)C [Compound 186] | 2.7 | 470 | 0.26
9 | CC[C@H](C)[C@@H]([C@@H](CC(=O)N1CCC[C@H]1[C@H](OC)[C@@H](C)C(=O)N[C@H](C)[C@@H](O)c1ccccc1)OC)N(C)C(=O)[C@@H](NC(=O)[C@H](C(C)C)N(C)C(=O)OCc1ccc(NC(=O)[C@H](CCCNC(N)=O)NC(=O)[C@@H](NC(=O)c2cc(NCCOCCC(=O)NCCNc3ncc(-c4cc(C)cc(F)c4)c(N4CCC(N)CC4)c3-c3nc4ccc(Cl)cc4[nH]3)cc(C(=O)NCCS(=O)(=O)O)c2)C(C)C)cc1)C(C)C [Compound 187] | 3.7 | 1800 | 0.5
10 | CC[C@H](C)[C@@H]([C@@H](CC(=O)N1CCC[C@H]1[C@H](OC)[C@@H](C)C(=O)N[C@H](C)[C@@H](O)c1ccccc1)OC)N(C)C(=O)[C@@H](NC(=O)[C@H](C(C)C)N(C)C(=O)OCc1ccc(NC(=O)[C@H](CCCNC(N)=O)NC(=O)[C@@H](NC(=O)c2cc(NCCOCCC(=O)NCCNc3ncc(-c4cc(C)cc(F)c4)c(N4CCC(N)CC4)c3-c3nc4ccc(Cl)cc4[nH]3)cc(C(=O)NCC(=O)S(N)(=O)=O)c2)C(C)C)cc1)C(C)C [Compound 188] | 2.7 | 670 | 0.34
11 | CC[C@H](C)[C@@H]([C@@H](CC(=O)N1CCC[C@H]1[C@H](OC)[C@@H](C)C(=O)N[C@H](C)[C@@H](O)c1ccccc1)OC)N(C)C(=O)[C@@H](NC(=O)[C@H](C(C)C)N(C)C(=O)OCc1ccc(NC(=O)[C@H](CCCNC(N)=O)NC(=O)[C@@H](NC(=O)c2cc(NCCOCCC(=O)NCCNc3ncc(-c4cc(C)cc(F)c4)c(N4CCC(N)CC4)c3-c3nc4ccc(Cl)cc4[nH]3)cc(C(=O)NCCN(CC(=O)O)CC(=O)O)c2)C(C)C)cc1)C(C)C [Compound 189] | 7.6 | 2200 | 0.4
12 | CC[C@H](C)[C@@H]([C@@H](CC(=O)N1CCC[C@H]1[C@H](OC)[C@@H](C)C(=O)N[C@H](C)[C@@H](O)c1ccccc1)OC)N(C)C(=O)[C@@H](NC(=O)[C@H](C(C)C)N(C)C(=O)OCc1ccc(NC(=O)[C@H](CCCNC(N)=O)NC(=O)[C@@H](NC(=O)CCOCCNC(=O)[C@H](CCC(=O)O)NC(=O)[C@H](CCC(=O)O)NC(=O)CCOCCOCCOCCOCCC(=O)NCCNc2ncc(-c3cc(C)cc(F)c3)c(N3CCC(N)CC3)c2-c2nc3ccc(Cl)cc3[nH]2)C(C)C)cc1)C(C)C [Compound 190] (X3-EE[PEG1]V[Cit][PABC][NMeV]V[Dil][Dolaproine]-X2) | 14 | 3200 | 0.33
13 | CC[C@H](C)[C@@H]([C@@H](CC(=O)N1CCC[C@H]1[C@H](OC)[C@@H](C)C(=O)N[C@H](C)[C@@H](O)c1ccccc1)OC)N(C)C(=O)[C@@H](NC(=O)[C@H](C(C)C)N(C)C(=O)OCc1ccc(NC(=O)[C@H](CCCNC(N)=O)NC(=O)[C@@H](NC(=O)CCOCCNC(=O)[C@H](CCC(=O)O)NC(=O)[C@H](CCC(N)=O)NC(=O)CCOCCC(=O)NCCNc2ncc(-c3cc(C)cc(F)c3)c(N3CCC(N)CC3)c2-c2nc3ccc(Cl)cc3[nH]2)C(C)C)cc1)C(C)C [Compound 191] (X4-QE[PEG1]V[Cit][PABC][NMeV]V[Dil][Dolaproine]-X2) | 38 | 1700 | 1.9
14 | CC[C@H](C)[C@@H]([C@@H](CC(=O)N1CCC[C@H]1[C@H](OC)[C@@H](C)C(=O)N[C@H](C)[C@@H](O)c1ccccc1)OC)N(C)C(=O)[C@@H](NC(=O)[C@H](C(C)C)N(C)C(=O)OCc1ccc(NC(=O)[C@H](CCCNC(N)=O)NC(=O)[C@@H](NC(=O)CCCCCNC(=O)[C@H](CCC(=O)O)NC(=O)[C@H](CCC(N)=O)NC(=O)CCOCCOCCOCCOCCC(=O)NCCNc2ncc(-c3cc(C)cc(F)c3)c(N3CCC(N)CC3)c2-c2nc3ccc(Cl)cc3[nH]2)C(C)C)cc1)C(C)C [Compound 192] (X3-QE[Ahx]V[Cit][PABC][NMeV]V[Dil][Dolaproine]-X2) | 12 | 1300 | 0.37
15 | CC[C@H](C)[C@@H]([C@@H](CC(=O)N1CCC[C@H]1[C@H](OC)[C@@H](C)C(=O)N[C@H](C)[C@@H](O)c1ccccc1)OC)N(C)C(=O)[C@@H](NC(=O)[C@H](C(C)C)N(C)C(=O)OCc1ccc(NC(=O)[C@H](CCCNC(N)=O)NC(=O)[C@@H](NC(=O)CCCCCCCCNc2ncc(-c3cc(C)cc(F)c3)c(N3CCC(N)CC3)c2-c2nc3ccc(Cl)cc3[nH]2)C(C)C)c(O[C@@H]2O[C@H](C(=O)NCC(=O)O)[C@@H](O)[C@H](O)[C@H]2O)c1)C(C)C [Compound 193] | 3.8 | 32 | 0.87
